Experimental data as given in US20240368183A1, “Macrocyclic Compounds Having ENT1 Inhibiting Activity” (iTeos Belgium SA, priority 2021, published 2024).
Like-named read-outs stand apart in the source and are kept apart here.

Legend:
[1] = tested on: stimulated primary human T cells; assay: T cell proliferation assay (rescue of proliferation in the presence of ATP); type: cell-based
Method: The aim of this study was to determine the potency of equilibrative nucleoside transporter 1 (ENT1) inhibitors to rescue proliferation by stimulated primary human T cells incubated in the presence of 100 uM Adenosine triphosphate (ATP), in baseline conditions (condition A) or in the presence of various proteins known to bind small molecules (condition B)
Condition B: X-VIVO15, 2% Human Serum Albumine (HSA) and 0.1% α-1-Acid Glycoprotein (AAG)
Cryopreserved purified human CD3+ T cells were thawed and washed twice with RPMI1640 medium, UltraGlutamine containing 10% hiFBS.
Cells were suspended in PBS containing 10% hiFBS. Cells were stained with CFSE by adding 2 μM solution in PBS, to get a final 1 μM CFSE solution. Cells were incubated while rotating for 5 minutes. Reaction was stopped by adding PBS with 10% FBS and cells were centrifuged for 5 minutes at 1500 rpm.
Cells were resuspended at 1.6×10^6 cells/mL, either in X-VIVO15 medium or in 4% Human Serum Albumin and 0.2% α-1-Acid Glycoprotein. 50 μL of cell suspension (8×10^4 T cells) was added to wells of sterile round-bottom 96-well plates. Cells were activated by adding 50 μL of anti-CD3 anti-CD28 coated microbeads, suspended either in XVIVO-15 medium or in 4% HSA and 0.2% α-1-Acid Glycoprotein, at a ratio of one microbead per two cells.
Serial dilutions of the ENT1 inhibitors were prepared in X-VIVO15 from 10 mM stock solutions in DMSO, and 50 μL was added to the wells.
ATP powder was diluted in X-VIVO15, and 50 μL of this compound was added to the wells to reach a final assay concentration of 100 μM. Final volume of 200 μL.
The experiments were also performed in 384 well plates—all volumes reduced by a factor of 4 (12.5 μL) with a final volume of 50 μL.
Experiments were performed in duplicate. The cells were placed in a 37° C. humidified tissue culture incubator with 5% CO2 for 72 hours for 96 well plates, 96 hours for 384 well plates After 72 or 96 hours, proliferation was measured determined by CFSE dilution via flow cytometry.

human ENT1 = target: T1, human ENT1 (Homo sapiens, UniProt Q99808); assay: ENT1 binding assay (competition with Sahenta-DY647); details: JAR cells expressing ENT1; competition with Sahenta-DY647 (100 nM); 4° C.
T1 construct: JAR cells expressing ENT1 were bought from ATCC® (HTB-144TM); host or cells: JAR cells (human choriocarcinoma line, own knowledge)
T1 sequence (Q99808 1-456): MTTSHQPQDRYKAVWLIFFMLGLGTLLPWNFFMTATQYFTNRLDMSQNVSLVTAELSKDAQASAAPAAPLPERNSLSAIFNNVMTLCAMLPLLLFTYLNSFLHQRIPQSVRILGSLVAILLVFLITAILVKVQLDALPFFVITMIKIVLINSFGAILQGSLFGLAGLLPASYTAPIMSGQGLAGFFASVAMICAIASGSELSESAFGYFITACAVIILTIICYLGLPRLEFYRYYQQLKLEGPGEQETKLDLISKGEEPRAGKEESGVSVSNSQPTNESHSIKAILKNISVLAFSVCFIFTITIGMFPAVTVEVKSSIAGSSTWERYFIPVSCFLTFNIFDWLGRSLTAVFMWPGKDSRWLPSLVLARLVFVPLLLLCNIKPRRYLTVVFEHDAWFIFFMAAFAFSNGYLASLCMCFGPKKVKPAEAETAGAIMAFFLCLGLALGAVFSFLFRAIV
Method: The present assay aims at showing that the compounds of the present disclosure can bind to human ENT1. The principle of the assay is a competition between the compounds of this present disclosure and Sahenta-DY647, an ENT1 inhibitor that emits fluorescence (Ex=630 nm, Em=670 nm). By measuring the fluorescence at the end of the assay we could assess the binding potency of the compounds of the present disclosure.
JAR cells expressing ENT1 were bought from ATCC® (HTB-144TM). Cells were cultured in RPMI 1640 medium (LONZA®, #BE12-702F/U1) supplemented with 10% FBS (GIBCO®, #10270-106), 10 mM Hepes (LONZA®, #BE17-737E), 1 mM Sodium Pyruvate (LONZA®, #BE13-115E) and 2% Penicillin/Streptomycin (LONZA®, #DE17-603E) at 37° C. and 5% CO2. The assay was conducted on the following buffer: HBSS (LONZA®, #LO-527F) supplemented with 10 mM Hepes (LONZA®, #BE17-737E) and 0.1% BSA (Miltenyi®, #130-091-376) on the day of the assay.
JAR cells were resuspended in the described buffer. Compounds of the present disclosure and Sahenta-DY647 were diluted 200× in the described buffer.
A total of 50 000 cells were pre-incubated for 30 min at 4° C. with the compounds of the present disclosure before adding the corresponded IC90 of Sahenta-DY647 (100 nM) and incubate once more for 30 min at 4° C. The total volume of the reaction was 100 μL (50 μL of cells, 25 μL of the compounds of the present disclosure and 25 μL of Sahenta-DY647) in a 96 well plate, U-bottom (Greiner®, #650-180). The plates were washed 2× by centrifugation (4 min, 400 rcf at 4° C.) in the same buffer. Cells were re-suspended in 70 μL of the buffer and 50 μL was transferred to a Black 384 Optiplate (PerkinElmer®, #6007279). Fluorescence (Ex=630 nm, Em=670 nm) was acquired on a Spectramax i3x (Molecular Devices®).

[2] = Condition B: X-VIVO15, 2% Human Serum Albumine (HSA) and 0.1% α-1-Acid Glycoprotein (AAG), 100 μM ATP, read-out: (2) T Cell proliferation (Condition B) IC50
[3] = Homo sapiens, Condition A: X-VIVO15, 100 μM ATP, read-out: T Cell proliferation (Condition A) IC50

IC50 (human ENT1) [nM] | SMILES | IC50 [1, 2] [nM] | IC50 [1, 3] [nM]
1 to 20 | COc1cc2cc(c1OC)OCCCC(n1cc(-c3ccccc3)cn1)CCN1CCCN(CCCOC2=O)CC1 (stereo not drawn) [Compound 29] | 20 to 500 | < 1
1 to 20 | COc1cc(C(=O)OC2CCCOc3cc(cc(OC)c3OC)C(=O)NCCCN3CCN(CC2)CC3=O)cc(OC)c1OC (stereo not drawn) [Compound 30] | 20 to 500 | < 1
20 to 500 | COc1cc(C(=O)OC2CCCOc3cc(cc(Cl)c3Cl)C(=O)NCCCN3CCCN(CC2)CC3)cc(OC)c1OC (stereo not drawn) [Compound 33] | > 500 | 1 to 20
1 to 20 | COc1cc(C(=O)OC2CCCOc3cc(cc(OC)c3OC)-c3cn(nn3)CCCN3CCCN(CC2)CC3)cc(OC)c1OC (stereo not drawn) [Compound 37] | 20 to 500 | < 1
1 to 20 | COc1cc(C(=O)OC2CCCOc3cc(cc(OC)c3OC)COCCN(C)C3CCN(CC2)CC3)cc(OC)c1OC (stereo not drawn) [Compound 41] | 20 to 500 | < 1
1 to 20 | COc1cc(C(=O)OC2CCCOc3cc(cc(OC)c3OC)COCCC3CCN(CC3)CC2)cc(OC)c1OC (stereo not drawn) [Compound 42] | 20 to 500 | < 1
1 to 20 | COc1cc(C(=O)OC2CCCOc3cc(cc(OC)c3OC)COCCOCCN(C)CC2)cc(OC)c1OC (stereo not drawn) [Compound 43] | 20 to 500 | < 1
1 to 20 | COc1cc(C(=O)OC2CCCOc3cc(cc(OC)c3OC)COCCN3CCCN(CC2)CC3)cc(OC)c1OC (stereo not drawn) [Compound 44] | 20 to 500 | < 0.1
1 to 20 | COc1cc(C(=O)OC2CCCOc3cc(cc(OC)c3OC)CCCCS(=O)(=O)N3CCCN(CC2)CC3)cc(OC)c1OC (stereo not drawn) [Compound 47] | 1 to 20 | < 1

SMILES | IC50 (human ENT1) [nM] | IC50 [1, 2] [nM] | IC50 [1, 3] [nM]
COc1cc2cc(c1OC)OCCCC(OC(=O)NCC(=O)N1CCOCC1)CCN1CCCN(CCCNC2=O)CC1 (stereo not drawn) [Compound 40] | 20 to 500 | 20 to 500 | 20 to 500
